Measurements: US11389407B2, “Cochleates and methods of using the same to enhance tissue penetration of pharmacologically active agent” (priority 2015, dated 2022)
Converted amounts (≈) assume the structure as drawn.

System: Candida albicans
Assay: Minimum inhibitory concentration (MIC)
Assay type: cell-based

minimum inhibitory concentration (MIC): 0.25 µg/mL (≈ 0.271 µM)
SMILES: C[C@@H]1[C@H](O)[C@@H](C)/C=C/C=C/C=C/C=C/C=C/C=C/C=C/[C@H](O[C@@H]2O[C@H](C)[C@@H](O)[C@H](N)[C@@H]2O)C[C@@H]2O[C@](O)(C[C@@H](O)C[C@@H](O)[C@H](O)CC[C@@H](O)C[C@@H](O)CC(=O)O[C@H]1C)C[C@H](O)[C@H]2C(=O)O [AmB, amphotericin B]
